These results are taken from US5677305A, “Oxopyridinylquinoxaline derivative” (Shionogi & Co., Ltd., priority 1994, dated 1997).

In general, IC50 refers to the concentration at which inhibition is half-maximal.

The test system of assay [1] is glycine binding site of the NMDA receptors. As to conditions: in words; cited from earlier work.
Assay [2] concerns the target AMPA receptors. The assay is described as follows: competitive binding to AMPA receptors ([3H]AMPA). More on the design: species or system Slc-Wistar rat. As to conditions: [3H]AMPA 30 nM, rat cerebral cortex membrane, 100 mM KSCN, 0° C., 30 minutes. How it is done: The binding ability of the compounds of the present invention with respect to the AMPA receptors can be measured, for example, by the following competitive assay.
A rat cerebral cortex is homogenized with a buffer solution, and repeatedly centrifuged and resuspended in a buffer to prepare a membrane sample. The membrane sample is mixed with a solution containing [^3 H] AMPA and a compound of interest and incubated for a predetermined period of time. Then, the reaction of the mixture is terminated by dilution and filtration using filter paper. Radioactivity on the filter paper is measured by a liquid scintillation counter. Non-specific binding is measured with 1 mM of non-radioactive glutamate to work out IC50.
Assay for competitive binding of 6-nitro-7-(4-oxo-4H-pyridin-1-yl)-1,4-dihydroquinoxaline-2,3-dione (Ia) to AMPA receptors.
First, the cerebral cortex of an Slc-Wistar rat (250 to 300 g in weight) was homogenized in 30 mM Tris acetic acid buffer in 10-fold volume (containing 2.5 mM CaCl2, pH 7.1). […] Each of the mixtures was diluted and filtered using Whatman GF/C filter paper so as to terminate the reaction, and radioactivity of ^3 H remaining on the filter paper was measured by a scintillation counter for liquid. […] IC50 value of Compound Ia was determined using YM900 as a control in the same way as described above.

The target of assay [3] is T1, glycine binding site of NMDA receptors (Rattus norvegicus, UniProt P35439).
T1 construct: the cerebral cortex of an Slc-Wistar rat (250 to 300 g in weight) was homogenized; from tissue; host or cells: cerebral cortex of Slc-Wistar rat, washed and Triton X-100 treated membranes
The assay is described as follows: competitive binding to a glycine binding site of NMDA receptors ([3H]glycine). More on the design: species or system Slc-Wistar rat. As to conditions: for IC50: [3H]glycine 100 nM, rat cerebral cortex membrane, 0° C., 10 minutes. Here is the method: The ability of the compounds of the present invention to bind to a glycine binding site of the NMDA receptors can be measured, for example, using competitive assay in vitro as described below.
A rat cerebral cortex is homogenized with a buffer solution, and repeatedly centrifuged and resuspended in a buffer to prepare a membrane sample. The membrane sample is mixed with a solution containing [^3 H] glycine and a compound of interest and incubated for a predetermined period of time. Then, the reaction of the mixture is terminated by dilution and filtration using filter paper. Radioactivity on the filter paper is measured by a liquid scintillation counter. Non-specific binding is measured with 1 mM of non-radioactive glycine to work out IC50.
Assay for competitive binding of 6-nitro-7-(4-oxo-4H-pyridin-1-yl)-1,4-dihydroquinoxaline-2,3-dione (Ia) to a glycine binding site of NMDA receptors.
First, the cerebral cortex of an Slc-Wistar rat (250 to 300 g in weight) was homogenized in 5 mM Tris acetic acid buffer in 20-fold volume (containing 1 mM EGTA, 0.1 mM PMSF, and 0.01% Bacitracin, pH 7.4). The cerebral cortex was centrifuged at 50,000×g for 30 minutes and resuspended in a buffer. This process was repeated four times. The final suspension was stored at -80° C. The frozen suspension was thawed at room temperature and incubated with 0.08% Triton X-100 solution at […] for 10 minutes. The resultant suspension was then washed twice and suspended in 50 mM Tris-acetate buffer (pH 7.4) to give a membrane sample. The membrane sample was mixed with 100 nM [^3 H]glycine and solutions in a series of concentrations of Compound Ia obtained in Example 1. The mixtures were incubated at 0° C. for 10 minutes. Each of the mixtures was diluted and filtered using Whatman GF/C filter paper so as to terminate the reaction, and radioactivity of ^3 H remaining on the filter paper was measured by a scintillation counter for liquid. […] IC50 value of Compound Ia was determined using YM900 (a compound of Example 15 described in WO92/07847) as a control in the same way as described above.

Structures are written as SMILES.

As for `N#Cc1cc2[nH]c(=O)c(=O)[nH]c2cc1[N+](=O)[O-]` [CNQX, 6-cyano-7-nitroquinoxaline-2,3-dione], in assay [1], the “antagonistic effects on the glycine binding site of the NMDA receptors” value is recorded as “exhibit antagonistic effects on the glycine binding site of the NMDA receptors”.

Regarding `O=c1[nH]c2cc(-n3ccnc3)c([N+](=O)[O-])cc2[nH]c1=O` [YM900, 6-imidazolyl-7-nitroquinoxaline-2,3-(1H, 4H)-dione], the figures for the IC50 in assay [2] and in assay [3] were 0.28 µM and 67 µM, respectively.

Take `O=c1ccn(-c2cc3[nH]c(=O)c(=O)[nH]c3cc2[N+](=O)[O-])cc1` [Ia, 6-nitro-7-(4-oxo-4H-pyridin-1-yl)-1,4-dihydroquinoxaline-2,3-dione]: the IC50 in assay [2] is 0.1 µM; in assay [3], 6.6 µM. Besides, the “antagonistic effects as strong as that of YM900 (times)” value in assay [3] (Ia vs YM900, from Table 2) is given as “approximately ten”.

`O=c1[nH]c2cc([N+](=O)[O-])c([N+](=O)[O-])cc2[nH]c1=O` [DNQX, 6,7-dinitroquinoxaline-2,3-dione]: the “antagonistic effects on the glycine binding site of the NMDA receptors” value in assay [1] is recorded as “exhibit antagonistic effects on the glycine binding site of the NMDA receptors”.
